# Measured values as given in patent US20240166626A1, “Compounds and Methods for Preventing, Treating, or Ameliorating Airway Disease” (THOMAS JEFFERSON UNIVERSITY, priority 2021, published 2024).
# Target: β1AR (Homo sapiens, UniProt P08588)
# Test: BRET analysis of β-arrestin2 interaction with β1AR in HEK 293 cells
# Assay type: cell-based
# Conditions: 10 μM DFPQ, FIG. 2B
# Description: FIGS. 2A-2C: […] Cells were read every 2 min post agonist addition. […]® ADRB2 cells (DiscoveRx) were maintained with the AssayCompleteTM Cell Culture kit (DiscoveRx catalog #92-[…]). […] HEK 293 cells stably overexpressing β2AR included 250 μg/ml G418. Cells were incubated at 37° C. in a humidified incubator with 5% CO2. […] Cells were read every three minutes for 18 minutes on a PolarStar Optima plate reader (BMG) to establish peak signal. […] Plates were incubated in the dark at room temperature for one hour. Luminescence was determined at room temperature (23-25° C.) on a PolarStar Optima plate reader (BMG). […] Screening data analysis and IC50 determination. […] Relative assay bias was calculated from the ratio of normalized cAMP and arrestin recruitment responses. […] BRET was measured using a Tecan Infinite F500 microplate reader. […] Bound [35 S]GTPγS was collected by rapid filtration on GF/B filters, washed 4 times with 4 ml of cold GTPγS wash buffer and analyzed by liquid scintillation counting. […] Immunoprecipitated proteins were separated by SDS-PAGE and analyzed by western blot using a β2AR C-terminal tail or phospho-specific antibody. […] Band intensity was measured by densitometry using ImageJ. […] Absorbance was then measured on a plate reader at 405 nm. […] Lungs were monitored for appropriate inflation. […] Images were analyzed post hoc using the ImageJ software. […] Cell-free area was quantitated using ImageJ. […]
# Sequence of β1AR (P08588 whole entry): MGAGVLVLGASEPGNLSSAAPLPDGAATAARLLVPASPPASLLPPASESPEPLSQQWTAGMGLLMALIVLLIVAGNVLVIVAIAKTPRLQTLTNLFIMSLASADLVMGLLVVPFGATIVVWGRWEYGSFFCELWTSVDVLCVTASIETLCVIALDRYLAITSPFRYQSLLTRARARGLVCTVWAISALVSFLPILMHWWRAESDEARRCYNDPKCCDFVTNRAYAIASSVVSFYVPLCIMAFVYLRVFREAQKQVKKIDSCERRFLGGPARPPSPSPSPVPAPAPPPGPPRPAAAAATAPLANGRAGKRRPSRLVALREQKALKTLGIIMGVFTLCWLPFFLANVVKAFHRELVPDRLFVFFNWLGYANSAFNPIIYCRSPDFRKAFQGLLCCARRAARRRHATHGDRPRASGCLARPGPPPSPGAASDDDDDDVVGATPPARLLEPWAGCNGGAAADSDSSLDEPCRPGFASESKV
structure (smiles),measurement,value
"Fc1ccc(Nc2nc(NC3CCCCC3)c3ccccc3n2)cc1F [DFPQ, N^4-cyclohexyl-N^2-(3,4-difluorophenyl)quinazoline-2,4-diamine]",β-arrestin2 interaction with the β1AR,not significantly inhibited
